From patent US6737383B1, “Herbicidal oxadiazolidines” (priority 1999, dated 2004)

Key:
purple nutsedge = experiment: Test B pre/postemergence purple nutsedge; assay type: in vivo, Cyperus rotundus
How it was run: (§1)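 Response is a visual 0-to-10 score relative to untreated plants, where 0 means no effect and 10 means complete control, taken twelve to sixteen days after application. Treatments went onto soil at planting and onto foliage of 1- to 4-leaf plants, using a surfactant-containing non-phytotoxic solvent.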

cocklebur = experiment: Test B pre/postemergence cocklebur; assay type: in vivo, Xanthium strumarium
How it was run: as §1

wheat = experiment: Test B pre/postemergence wheat; assay type: in vivo, Triticum aestivum
How it was run: as §1

smallflower flatsedge = experiment: Test B flood test smallflower flatsedge; assay type: in vivo, Cyperus difformis
How it was run: (§2)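 Read-out is a visual response score from 0 (no effect) to 10 (complete control), assigned by comparison with untreated controls. Treatment was applied at the 2-leaf stage, and plants stayed in the greenhouse for twelve to sixteen days before scoring.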

soybean = experiment: Test B pre/postemergence soybean; assay type: in vivo, Glycine max
How it was run: as §1

rape = experiment: Test B pre/postemergence rape; assay type: in vivo, Brassica napus
How it was run: as §1

velvetleaf = experiment: Test B pre/postemergence velvetleaf; assay type: in vivo, Abutilon theophrasti
How it was run: as §1

bedstraw = experiment: Test B pre/postemergence bedstraw; assay type: in vivo, Galium aparine
How it was run: as §1

giant foxtail = experiment: Test B pre/postemergence giant foxtail; assay type: in vivo, Setaria faberii
How it was run: as §1

wild oat = experiment: Test B pre/postemergence wild oat; assay type: in vivo, Avena fatua
How it was run: as §1

surinam grass = experiment: Test B pre/postemergence surinam grass; assay type: in vivo, Brachiaria decumbens
How it was run: as §1

sugar beet = experiment: Test B pre/postemergence sugar beet; assay type: in vivo, Beta vulgaris
How it was run: as §1

rice = experiment: Test B flood test rice; assay type: in vivo, Oryza sativa
How it was run: as §2

duck salad = experiment: Test B flood test duck salad; assay type: in vivo, Heteranthera limosa
How it was run: as §2

pigweed = experiment: Test B pre/postemergence pigweed; assay type: in vivo, Amaranthus retroflexus
How it was run: as §1

corn = experiment: Test B pre/postemergence corn; assay type: in vivo, Zea mays
How it was run: as §1

[1] = Postemergence, Rate 62 g/ha, scale 0 to 10, 0 is no effect, 10 is complete control
[2] = Postemergence, Rate 125 g/ha, scale of 0 to 10 where 0 is no effect and 10 is complete control
[3] = Postemergence, Rate 250 g/ha, scale 0 to 10, 0 no effect, 10 complete control
[4] = Preemergence, Rate 62 g/ha, scale 0 to 10 (0 no effect, 10 complete control)
[5] = Preemergence, Rate 125 g/ha, scale 0 to 10 (0 no effect, 10 complete control)
[6] = Preemergence, Rate 250 g/ha, scale of 0 to 10 where 0 is no effect and 10 is complete control
[7] = Preemergence, Rate 500 g/ha, scale 0 (no effect) to 10 (complete control)
[8] = Rate 500 g/ha, Postemergence, scale 0 to 10, 0 no effect, 10 complete control
[9] = Rate 250 g/ha, Postemergence, scale 0 to 10, 0 is no effect, 10 is complete control
[10] = Postemergence (flood test species), Rate 125 g/ha, scale of 0 to 10 where 0 is no effect and 10 is complete control
[11] = Rate 250 g/ha, Postemergence (flood test), scale 0 to 10, 0 is no effect, 10 is complete control
[12] = Rate 500 g/ha, listed under Postemergence (flood test species), scale 0 to 10, 0 no effect, 10 complete control
[13] = Rate 125 g/ha, Postemergence, scale 0 to 10, 0 no effect, 10 complete control

CCN(CC)C(=O)n1oc(=O)n(-c2cccc3c2CCCC3)c1=O [Compound 89]
Nutsedge plant response rating (purple nutsedge; [1]): 0 | Nutsedge plant response rating (purple nutsedge; [2]): 0 | Nutsedge plant response rating (purple nutsedge; [3]): 0 | Nutsedge plant response rating (purple nutsedge; [4]): 0 | Plant response rating, Nutsedge (purple nutsedge; [5]): 0 | Plant response rating, Nutsedge (purple nutsedge; [6]): 0 | Nutsedge plant response rating (purple nutsedge; [7]): 0 | Nutsedge plant response rating (purple nutsedge; [8]): 0 | Cocklebur plant response rating (cocklebur; [1]): 1 | Cocklebur plant response rating (cocklebur; [2]): 1 | Cocklebur plant response rating (cocklebur; [3]): 2 | Cocklebur plant response rating (cocklebur; [4]): 0 | Plant response rating, Cocklebur (cocklebur; [5]): 0 | Plant response rating, Cocklebur (cocklebur; [6]): 0 | Cocklebur plant response rating (cocklebur; [7]): 0 | Cocklebur plant response rating (cocklebur; [8]): 2 | Wheat plant response rating (wheat; [1]): 0 | Wheat plant response rating (wheat; [2]): 0 | Wheat plant response rating (wheat; [4]): 0 | Plant response rating, Wheat (wheat; [5]): 0 | Plant response rating, Wheat (wheat; [6]): 0 | Wheat plant response rating (wheat; [7]): 0 | Plant response rating, Wheat (wheat; [9]): 0 | Wheat plant response rating (wheat; [8]): 0 | S. Flatsedge plant response rating (smallflower flatsedge; [10]): 0 | S. Flatsedge plant response rating (smallflower flatsedge; [1]): 0 | Plant response rating, S. Flatsedge (smallflower flatsedge; [11]): 0 | S. Flatsedge plant response rating (smallflower flatsedge; [12]): 0 | Soybean plant response rating (soybean; [1]): 0 | Soybean plant response rating (soybean; [2]): 0 | Soybean plant response rating (soybean; [4]): 0 | Plant response rating, Soybean (soybean; [5]): 0 | Plant response rating, Soybean (soybean; [6]): 0 | Soybean plant response rating (soybean; [7]): 0 | Plant response rating, Soybean (soybean; [9]): 0 | Soybean plant response rating (soybean; [8]): 1 | Rape plant response rating (rape; [1]): 0 | Rape plant response rating (rape; [2]): 0 | Rape plant response rating (rape; [3]): 0 | Rape plant response rating (rape; [4]): 0 | Plant response rating, Rape (rape; [5]): 0 | Plant response rating, Rape (rape; [6]): 0 | Rape plant response rating (rape; [7]): 0 | Rape plant response rating (rape; [8]): 0 | Velvetleaf plant response rating (velvetleaf; [1]): 0 | Velvetleaf plant response rating (velvetleaf; [2]): 0 | Velvetleaf plant response rating (velvetleaf; [4]): 0 | Plant response rating, Velvetleaf (velvetleaf; [5]): 0 | Plant response rating, Velvetleaf (velvetleaf; [6]): 0 | Velvetleaf plant response rating (velvetleaf; [7]): 0 | Plant response rating, Velvetleaf (velvetleaf; [9]): 0 | Velvetleaf plant response rating (velvetleaf; [8]): 3 | Bedstraw plant response rating (bedstraw; [1]): 0 | Bedstraw plant response rating (bedstraw; [3]): 0 | Bedstraw plant response rating (bedstraw; [4]): 0 | Plant response rating, Bedstraw (bedstraw; [5]): 0 | Plant response rating, Bedstraw (bedstraw; [6]): 0 | Bedstraw plant response rating (bedstraw; [7]): 0 | Bedstraw plant response rating (bedstraw; [13]): 0 | Bedstraw plant response rating (bedstraw; [8]): 3 | Giant foxtail plant response rating (giant foxtail; [1]): 0 | Giant foxtail plant response rating (giant foxtail; [2]): 0 | Giant foxtail plant response rating (giant foxtail; [3]): 0 | Giant foxtail plant response rating (giant foxtail; [4]): 0 | Plant response rating, Giant foxtail (giant foxtail; [5]): 0 | Plant response rating, Giant foxtail (giant foxtail; [6]): 0 | Giant foxtail plant response rating (giant foxtail; [7]): 2 | Giant foxtail plant response rating (giant foxtail; [8]): 2 | Wild oats plant response rating (wild oat; [1]): 0 | Wild oats plant response rating (wild oat; [2]): 0 | Wild oats plant response rating (wild oat; [4]): 0 | Plant response rating, Wild oats (wild oat; [5]): 0 | Plant response rating, Wild oats (wild oat; [6]): 0 | Wild oats plant response rating (wild oat; [7]): 0 | Plant response rating, Wild oats (wild oat; [9]): 0 | Wild oats plant response rating (wild oat; [8]): 0 | B. signalgrass plant response rating (surinam grass; [1]): 0 | B. signalgrass plant response rating (surinam grass; [3]): 0 | B. signalgrass plant response rating (surinam grass; [4]): 0 | Plant response rating, B. signalgrass (surinam grass; [5]): 0 | Plant response rating, B. signalgrass (surinam grass; [6]): 0 | B. signalgrass plant response rating (surinam grass; [7]): 0 | B. signalgrass plant response rating (surinam grass; [13]): 0 | B. signalgrass plant response rating (surinam grass; Rate 500 g/ha, Postemergence, scale of 0 to 10 where 0 is no effect and 10 is complete control): 0 | Sugarbeets plant response rating (sugar beet; [1]): 0 | Sugarbeets plant response rating (sugar beet; [2]): 0 | Sugarbeets plant response rating (sugar beet; [4]): 0 | Plant response rating, Sugarbeets (sugar beet; [5]): 0 | Plant response rating, Sugarbeets (sugar beet; [6]): 0 | Sugarbeets plant response rating (sugar beet; [7]): 0 | Plant response rating, Sugarbeets (sugar beet; [9]): 0 | Sugarbeets plant response rating (sugar beet; [8]): 6 | Rice plant response rating (rice; [10]): 0 | Rice plant response rating (rice; [1]): 0 | Plant response rating, Rice (rice; [11]): 0 | Rice plant response rating (rice; [12]): 0 | Ducksalad plant response rating (duck salad; [10]): 0 | Ducksalad plant response rating (duck salad; [1]): 0 | Ducksalad plant response rating (duck salad; [12]): 0 | Ducksalad plant response rating (duck salad; flood test, listed under Postemergence, Rate 250 g/ha, scale 0 to 10, 0 no effect, 10 complete control): 0 | Redroot pigweed plant response rating (pigweed; [1]): 0 | Redroot pigweed plant response rating (pigweed; [2]): 0 | Redroot pigweed plant response rating (pigweed; [4]): 0 | Plant response rating, Redroot pigweed (pigweed; [5]): 0 | Plant response rating, Redroot pigweed (pigweed; [6]): 0 | Redroot pigweed plant response rating (pigweed; [7]): 0 | Plant response rating, Redroot pigweed (pigweed; [9]): 0 | Redroot pigweed plant response rating (pigweed; [8]): 5 | Corn plant response rating (corn; [1]): 0 | Corn plant response rating (corn; [2]): 0 | Corn plant response rating (corn; [3]): 0 | Corn plant response rating (corn; [4]): 0 | Plant response rating, Corn (corn; [5]): 0 | Plant response rating, Corn (corn; [6]): 0 | Corn plant response rating (corn; [7]): 0 | Corn plant response rating (corn; [8]): 1
